# Calls of active or inactive are those of the source. Rule as the data show it, for most assays here: actives have a measured EC50 and inactives only a lower limit.
# How the values were obtained:
# [1] = molecular target: T1, Luciferin 4-monooxygenase (Photinus pyralis, UniProt P08659); test: inhibition of purified Photinus pyralis luciferase – biochemical, luminescence, dose response (AID 1891)
# [2] = Luminescence Cell-Based Dose Confirmation HTS to Identify Inhibitors of Platelet Dense Granule Release. [Related pubchem assays: 1663 (Primary HTS), 1678 (Summary of Project)]; format: functional
# [3] = alpha-synuclein stem-loop luciferase translation blockers – H4 neuroglioma cells, luminescence, confirmation (AID 1988); format: functional, cell-based
# HT-1080 = test: HT1080 cell viability loss – fluorescence readout (AID 620); format: functional, cell-based; settings: Homo sapiens
# [4] = molecular target: T1, Luciferin 4-monooxygenase; test: Counter Screen for Luciferase-based Assay Positives. [Related pubchem assays: 620, 618, 411 ]
# [5] = Luminescence Cell-Based Dose Response HTS to Identify Inhibitors of 5'UTR Stem-Loop Driven Prion Protein mRNA Translation in H4 Neuroglioblastoma Cells. [Related pubchem assays: 1827 (Project Summary), 1813 (Primary HTS)]; format: functional
# [6] = molecular target: T2, Calpain-2 catalytic subunit (Sus scrofa, UniProt P43367); test: m-calpain protease blockers, concentration series – biochemical, fluorogenic peptide substrate, dose response (AID 1420); format: functional
# T2 sequence (P43367 whole entry): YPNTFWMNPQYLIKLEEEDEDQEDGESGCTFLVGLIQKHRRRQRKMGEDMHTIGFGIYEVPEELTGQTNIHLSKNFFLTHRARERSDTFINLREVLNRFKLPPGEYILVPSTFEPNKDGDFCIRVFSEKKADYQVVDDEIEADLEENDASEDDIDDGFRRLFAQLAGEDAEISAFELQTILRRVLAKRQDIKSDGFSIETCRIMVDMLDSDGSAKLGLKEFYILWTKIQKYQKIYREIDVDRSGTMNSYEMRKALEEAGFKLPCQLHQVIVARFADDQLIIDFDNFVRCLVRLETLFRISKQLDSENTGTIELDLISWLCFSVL
# [7] = viability of PTEN-deleted HCT116 cells – cell-based, HCT116 PTEN knockout, dose response (AID 1047); format: functional;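 also: HCT116 colon tumor cells with PTEN knocked out; cells exposed to compound for 60 hours before readout; potency for loss of cell viability measured by luminescence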
# [8] = viability of HCT116 lacking mutant beta-catenin – cell-based, human colon tumor, dose response (AID 1045); format: functional;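 also: HCT116 colon tumor cells with beta catenin knocked out; cells exposed to compound for 60 hours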
# [9] = A Cell Based Secondary Assay To Explore Cytotoxicity of Compounds that Sensitize Mycobacterium Tuberculosis to Beta-Lactam Antibiotics.; format: functional
# Bcl-2-like protein 10 = molecular target: T3, Bcl-2-like protein 10 (Homo sapiens, UniProt Q9HD36); test: Bcl-B/TR3 peptide binding disruption – biochemical, fluorescence polarization, FITC-TR3 peptide, selectivity assay for Bfl-1 inhibitor project, primary screen (AID 748);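 also: fluorescence polarization from a fluorescein-labelled TR3 peptide binding purified Bcl-B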
# T3 sequence (Q9HD36 whole entry): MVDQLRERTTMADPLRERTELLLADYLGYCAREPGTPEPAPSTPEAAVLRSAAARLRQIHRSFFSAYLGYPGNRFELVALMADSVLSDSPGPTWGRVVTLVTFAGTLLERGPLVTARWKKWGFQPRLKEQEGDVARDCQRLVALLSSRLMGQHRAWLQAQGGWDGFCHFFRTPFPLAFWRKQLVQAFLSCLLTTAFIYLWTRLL
# Large T antigen = Large T antigen (Simian virus 40, UniProt P03070); format: functional, Betapolyomavirus macacae;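 also: Confirmatory-stage PubChem screen for compounds that inhibit SV40 T antigen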
# Large T antigen, sequence (P03070 whole entry): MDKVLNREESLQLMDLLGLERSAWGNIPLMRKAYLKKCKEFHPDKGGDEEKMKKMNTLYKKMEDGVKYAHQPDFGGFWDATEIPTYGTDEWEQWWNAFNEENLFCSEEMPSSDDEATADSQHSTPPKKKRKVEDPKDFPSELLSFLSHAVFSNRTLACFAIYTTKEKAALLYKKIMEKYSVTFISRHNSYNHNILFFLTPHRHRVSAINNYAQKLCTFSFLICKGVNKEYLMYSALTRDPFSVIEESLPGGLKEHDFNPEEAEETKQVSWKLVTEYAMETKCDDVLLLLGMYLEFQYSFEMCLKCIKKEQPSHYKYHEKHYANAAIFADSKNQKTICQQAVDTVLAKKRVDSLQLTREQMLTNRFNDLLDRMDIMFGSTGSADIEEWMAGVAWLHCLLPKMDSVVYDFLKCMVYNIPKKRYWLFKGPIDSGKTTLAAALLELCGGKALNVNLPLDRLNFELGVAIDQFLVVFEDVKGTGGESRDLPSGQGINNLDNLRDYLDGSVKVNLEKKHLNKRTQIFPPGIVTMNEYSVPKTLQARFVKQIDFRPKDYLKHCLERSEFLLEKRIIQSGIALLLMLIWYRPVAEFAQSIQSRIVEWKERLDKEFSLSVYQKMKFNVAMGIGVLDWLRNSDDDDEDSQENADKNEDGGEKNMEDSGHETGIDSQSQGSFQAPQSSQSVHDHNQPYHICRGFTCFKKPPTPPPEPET
# Nonstructural protein 1 = Nonstructural protein 1 (Influenza A virus, UniProt Q194T2); format: functional, Influenza A virus (A/California/07/2009(H1N1))
# Nonstructural protein 1, sequence (Q194T2 whole entry): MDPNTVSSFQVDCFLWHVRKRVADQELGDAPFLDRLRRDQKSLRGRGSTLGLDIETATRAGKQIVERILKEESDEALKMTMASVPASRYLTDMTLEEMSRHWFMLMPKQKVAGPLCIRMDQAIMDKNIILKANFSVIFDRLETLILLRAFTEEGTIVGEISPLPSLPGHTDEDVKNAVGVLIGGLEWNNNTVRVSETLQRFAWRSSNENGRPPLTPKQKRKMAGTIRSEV
# cells = format: functional, cell-based
# [10] = alpha-synuclein stem-loop translation blockers – luminescence, H4 neuroglioblastoma cells, dose confirmation, confirmation (AID 2454); format: functional, cell-based;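 also: H4 neuroglioblastoma cells carrying an alpha-synuclein 5'UTR luciferase reporter; potency for inhibition of the luciferase signal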
# [11] = luciferase reporter signal suppression in cells – H4 neuroglioma cells, luminescence, dose response (AID 1990); format: functional, cell-based
# [12] = luciferase reporter signal reduction – luminescence, H4-C neuroglioblastoma cells, dose response (AID 2458); format: functional, cell-based;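 also: H4 neuroglioblastoma cells stably carrying a luciferase reporter gene fusion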
# [13] = HEK-293T viability loss after treatment – luminescence, T-cell screen hits, cytotoxicity control for TCR NF-kB inhibitor project, dose response (AID 489026); format: functional, cell-based;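 also: cells exposed to compound about 14 hours before the viability readout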
# Aminopeptidase N = molecular target: T4, Aminopeptidase N (Plasmodium falciparum FcB1/Columbia, UniProt O96935); test: malaria alanyl aminopeptidase activity blockers – biochemical, fluorogenic H-Leu-NHMec substrate, 1536-well (AID 1445); parameters: species or system Plasmodium falciparum 3D7, 3D7
# T4 sequence (O96935 whole entry): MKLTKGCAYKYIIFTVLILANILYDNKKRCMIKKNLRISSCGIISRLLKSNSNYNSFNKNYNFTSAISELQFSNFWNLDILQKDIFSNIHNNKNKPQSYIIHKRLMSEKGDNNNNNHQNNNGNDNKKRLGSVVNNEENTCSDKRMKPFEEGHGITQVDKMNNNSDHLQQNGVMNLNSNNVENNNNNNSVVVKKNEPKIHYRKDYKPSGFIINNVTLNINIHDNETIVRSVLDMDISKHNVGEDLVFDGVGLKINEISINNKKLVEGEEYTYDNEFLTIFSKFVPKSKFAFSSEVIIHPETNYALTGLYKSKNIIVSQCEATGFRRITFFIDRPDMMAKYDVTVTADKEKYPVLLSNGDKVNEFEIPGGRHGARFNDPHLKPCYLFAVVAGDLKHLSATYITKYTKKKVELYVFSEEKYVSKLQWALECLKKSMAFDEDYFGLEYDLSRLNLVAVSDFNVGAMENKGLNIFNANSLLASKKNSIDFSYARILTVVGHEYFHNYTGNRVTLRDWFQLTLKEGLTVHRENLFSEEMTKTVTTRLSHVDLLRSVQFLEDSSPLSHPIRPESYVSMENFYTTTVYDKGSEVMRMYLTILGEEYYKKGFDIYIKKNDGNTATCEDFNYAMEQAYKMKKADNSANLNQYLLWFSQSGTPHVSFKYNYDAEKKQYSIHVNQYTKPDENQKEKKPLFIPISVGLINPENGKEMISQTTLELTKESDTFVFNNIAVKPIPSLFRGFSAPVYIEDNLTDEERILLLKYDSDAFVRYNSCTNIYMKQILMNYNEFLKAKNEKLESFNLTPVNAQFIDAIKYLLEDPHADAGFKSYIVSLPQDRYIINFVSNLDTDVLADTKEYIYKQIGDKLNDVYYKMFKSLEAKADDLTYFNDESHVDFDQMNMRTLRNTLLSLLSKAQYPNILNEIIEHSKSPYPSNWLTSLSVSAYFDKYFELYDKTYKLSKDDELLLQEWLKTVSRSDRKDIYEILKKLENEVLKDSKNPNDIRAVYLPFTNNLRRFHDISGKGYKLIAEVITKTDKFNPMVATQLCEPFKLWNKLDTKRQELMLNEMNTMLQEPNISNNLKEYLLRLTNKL
# T1 sequence (P08659 whole entry): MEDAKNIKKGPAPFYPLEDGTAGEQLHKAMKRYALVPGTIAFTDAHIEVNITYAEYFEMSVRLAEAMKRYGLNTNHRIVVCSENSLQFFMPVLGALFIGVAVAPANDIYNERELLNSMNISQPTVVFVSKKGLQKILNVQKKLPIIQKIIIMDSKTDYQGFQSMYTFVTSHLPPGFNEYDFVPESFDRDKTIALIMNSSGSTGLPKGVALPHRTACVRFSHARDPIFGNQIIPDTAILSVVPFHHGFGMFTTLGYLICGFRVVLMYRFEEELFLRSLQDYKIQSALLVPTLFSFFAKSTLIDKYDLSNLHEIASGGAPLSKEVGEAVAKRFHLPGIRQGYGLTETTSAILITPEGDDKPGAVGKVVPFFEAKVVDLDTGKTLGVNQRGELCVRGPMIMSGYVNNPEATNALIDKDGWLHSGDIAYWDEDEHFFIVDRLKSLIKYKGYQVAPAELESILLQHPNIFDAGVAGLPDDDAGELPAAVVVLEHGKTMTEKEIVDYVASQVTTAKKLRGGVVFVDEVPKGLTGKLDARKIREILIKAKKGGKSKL
Structure (SMILES),EC50 [3],EC50 [5],EC50 (cells),EC50 [10],EC50 [11],EC50 [12],also measured
O=C(Nc1cccc(O)c1)c1noc2c1CCCCC2,8.89 µM (active),> 30 µM (not active),–,–,–,–,EC50 [1]: 2.87 µM (active); EC50 [2]: 3.4 µM (active); EC50 (HT-1080): > 50 µM (not active); EC50 [4]: > 100 µM (not active)
O=C(Nc1ccc(OC(=O)c2ccccc2)c(-c2nc3ccccc3s2)c1)c1ccccc1,–,–,–,–,–,–,IC50 [6]: 18.5 µM (not active); EC50 [7]: 18.2 µM (active); EC50 [8]: 24.2 µM (active); CC50 [9]: > 40 µM (active)
Cc1cc(C)c(C)c(S(=O)(=O)N2CCC(C(=O)OCC(=O)N3c4ccccc4NC(=O)C3(C)C)CC2)c1C,–,–,–,–,–,–,IC50 (Bcl-2-like protein 10): 45.3 µM (active)
Cc1nc2ncccn2c1-c1csc(Nc2ccc(N(C)C)cc2)n1,< 0.1 µM (inconclusive),–,0.163 µM (active),0.128 µM (active),> 120 µM (not active),0.108 µM (active),IC50 (Large T antigen): 6.91 µM (active); IC50 (Nonstructural protein 1): 8.9 µM (active)
CCOc1ccccc1NC(=O)Cn1nnc(C(=O)NCc2cccs2)c1N,< 0.1 µM (active),< 0.1 µM (active),0.696 µM (active),0.685 µM (active),0.146 µM (active),0.877 µM (active),IC50 [13]: > 80 µM (inactive)
Cc1cc(=O)oc2c(CN(CC(C)C)CC(C)C)c(O)ccc12,–,–,–,–,–,–,IC50 (Aminopeptidase N): 74 µM (active)
